In PMC7114863 (Journal of Hepatology, 2009):

Columns and labels:
[1] = system: respiratory syncytial virus (paramyxoviridae); assay: Antiviral assay, respiratory syncytial virus; assay type: cell-based; conditions: data not shown
[2] = system: HuH6 replicon-containing cells; assay: Drug combinations in HuH6 cells; assay type: cell-based, HCV; conditions: checkerboard
[3] = system: para-influenza-3 virus (paramyxoviridae); assay: Antiviral assay, para-influenza virus; assay type: cell-based; conditions: data not shown
[4] = system: GSK-4^res replicon; assay: Anti-HCV assay, GSK-4 resistant replicon
[5] = system: J6/JFH chimeric HCV reporter virus (J6/JFH-Rluc2a-FLAG); assay: Antiviral assay with HCVcc virus in Huh-Lunet cells; assay type: cell-based, HCV genotype 2a
[6] = system: HIV-2 (ROD, retroviridae); assay: Antiviral assay, HIV-2; assay type: cell-based; conditions: data not shown
[7] = system: HIV-1 (IIIB); assay: Antiviral assay, HIV-1; assay type: cell-based; conditions: data not shown
[8] = system: 4′-Azidocytidine^res replicon; assay: Anti-HCV assay, 4′-azidocytidine resistant replicon
[9] = NADPH-dependent metabolic stability in dog hepatic microsomes; assay type: in vitro ADME
[10] = system: 2′-C-MeCyt^res replicon; assay: Anti-HCV assay, 2′-C-MeCyt resistant replicon
[11] = system: feline coronavirus (coronaviridae); assay: Antiviral assay, feline coronavirus; assay type: cell-based; conditions: data not shown
[12] = system: herpes simplex virus-1 (KOS strain, TK^− KOS ACV^r); assay: Antiviral assay, herpes simplex virus-1; assay type: cell-based; conditions: data not shown
[13] = system: herpes simplex virus-2 (G strain, herpesviridae); assay: Antiviral assay, herpes simplex virus-2; assay type: cell-based; conditions: data not shown
[14] = system: Punta Toro virus (bunyaviridae); assay: Antiviral assay, Punta Toro virus; assay type: cell-based; conditions: data not shown
[15] = system: reovirus-1 (reoviridae); assay: Antiviral assay, reovirus; assay type: cell-based; conditions: data not shown
[16] = system: HCV subgenomic 1b replicon; assay: Anti-HCV subgenomic replicon assay; assay type: cell-based
[17] = NADPH-dependent metabolic stability in rat hepatic microsomes; assay type: in vitro ADME
[18] = system: VX-950^res and BILN-2061^res replicon; assay: Anti-HCV assay, VX-950 and BILN-2061 double resistant replicon
[19] = system: coxsackie virus B4 (picornaviridae); assay: Antiviral assay, coxsackie virus; assay type: cell-based; conditions: data not shown
[20] = system: HuH6 replicons; assay: Anti-HCV replicon assay in HuH6 cells; conditions: Hepatitis C virus, HuH-6, read-out: Anti-HCV activity EC50, HuH6
[21] = system: YFV-17D (flaviviridae); assay type: cell-based, yellow fever virus
[22] = system: vaccinia virus (poxviridae); assay: Antiviral assay, vaccinia virus; assay type: cell-based; conditions: data not shown
[23] = Stability in basic and acidic solutions; assay type: physicochemical
[24] = system: influenza B virus (orthomyxoviridae); assay: Antiviral assay, influenza B virus; assay type: cell-based; conditions: data not shown
[25] = system: bovine viral diarrhea virus (BVDV, flaviviridae); assay: Antiviral assay with BVDV; assay type: cell-based
[26] = NADPH-dependent metabolic stability in human hepatic microsomes; assay type: in vitro ADME
[27] = system: HCV replicon in Huh 9-13 cells; assay: HCV replicon clearance-rebound assay; assay type: cell-based
[28] = system: sindbis virus (alphaviridae); assay: Antiviral assay, sindbis virus; assay type: cell-based; conditions: data not shown
[29] = system: BILN-2061^res replicon; assay: Anti-HCV assay, BILN-2061 resistant replicon
[30] = system: vesicular stomatitis virus (rhabdoviridae); assay type: cell-based
[31] = Cytostatic assay; assay type: cell-based; conditions: human, HCV replicon-containing cells (Huh 5-2, HuH6 or Huh 9-13)
[32] = system: influenza A virus (H1N1 and H3N2); assay: Antiviral assay, influenza A virus; assay type: cell-based; conditions: data not shown
[33] = 300 nM, Huh 9-13, data not shown

Structure (SMILES): Fc1cccc(-c2nc3ccn(Cc4cc(-c5ccc(Cl)cc5)no4)cc-3n2)c1F [GS-327073, 5-[[3-(4-chlorophenyl)-5-isoxazolyl]methyl]-2-(2,3-difluorophenyl)-5H-imidazo[4,5-c]pyridine]
- activity against respiratory syncitial virus [1]: inactive
- combined antiviral activity with 2′-C-MeCyt [2]: additive antiviral activity
- combined antiviral activity with IFNα 2b [2]: additive antiviral activity
- combined antiviral activity with VX-950 [2]: additive antiviral activity
- combined antiviral activity with low concentrations of IFNα 2b [2]: slight synergistic effect
- combined antiviral activity with ribavirin [2]: additive antiviral activity
- activity against para-influenza virus [3]: inactive
- activity against GSK-4 resistant replicons [4]: retained wild-type activity
- EC50 ([4]; Hepatitis C virus, read-out: EC50, GSK-4^res): 11 ± 1 nM
- fold resistance, GSK-4^res ([4]; versus wild-type replicon): (5.5)
- EC50 ([5]; Hepatitis C virus, 72 h, read-out: Anti-HCV activity EC50, J6/JFH): 330 ± 140 nM
- fold higher EC50 for HCV genotype 2a virus than for 1b replicon ([5]; versus 1b replicon): 100 fold
- activity against human immunodeficiency virus 2 [6]: inactive
- activity against human immunodeficiency virus 1 [7]: inactive
- activity against 4′-azidocytidine resistant replicons [8]: retained wild-type activity
- EC50 ([8]; Hepatitis C virus, read-out: EC50, 4′-Azidocytidine^res): 7.2 ± 0.8 nM
- fold resistance, 4′-Azidocytidine^res ([8]; versus wild-type replicon): (3.6)
- microsomal half-time ([9]; dog hepatic microsomes, NADPH-dependent): 88 min
- predicted hepatic clearance ([9]; dog microsomes): 6 mL/min/kg
- activity against 2′-C-MeCyt resistant replicons [10]: retained wild-type activity
- fate of cells containing 2′-C-MeCyt^res replicon under G418 pressure [10, 33]: died following only one passage
- EC50 ([10]; Hepatitis C virus, read-out: EC50, 2′-C-MeCyt^res): 8 ± 6 nM
- fold resistance, 2′-C-MeCyt^res ([10]; versus wild-type replicon): (4.0)
- activity against feline coronavirus [11]: inactive
- activity against herpes simplex virus 1 [12]: inactive
- activity against herpes simplex virus 2 [13]: inactive
- activity against Punta Toro virus [14]: inactive
- activity against reovirus [15]: inactive
- selectivity indices ([16]; CC50/EC50): ≥ 340
- EC50 ([16]; Hepatitis C virus, GETYPE1, read-out: mean EC50 values, HCV (genotype 1) subgenomic replicon replication): 2 to 50 nM
- microsomal half-time ([17]; rat hepatic microsomes, NADPH-dependent): 96 min
- predicted hepatic clearance ([17]; rat microsomes): 10.5 mL/min/kg
- activity against BILN-2061/VX-950 double resistant replicons [18]: retained wild-type activity
- fate of cells containing VX-950/BILN-2061^res replicon under G418 pressure [18, 33]: died following only one passage
- fold resistance, VX-950^res and BILN-2061^res ([18]; versus wild-type replicon): (2.0)
- activity against coxsackie virus [19]: inactive
- EC50 [20]: 50 ± 20 nM
- activity against yellow fever virus (17D) [21]: inactive
- activity against vaccinia virus [22]: inactive
- stability in acidic solution ([23]; pH 2.2): remained stable
- stability in basic solution ([23]; pH 7.3): remained stable
- activity against influenza virus B [24]: inactive
- cross-resistance with BPIP in anti-BVDV assay [25]: cross-resistant
- fold less potent against BVDV than compound 1 ([25]; compared to compound 1): about 10 fold
- microsomal half-time ([26]; human hepatic microsomes, NADPH-dependent): 236 min
- predicted hepatic clearance ([26]; human microsomes): 2.5 mL/min/kg
- clearance of replicon, drug alone ([27]; 20 × EC50, Huh 9-13): failed to achieve clearance
- clearance of replicon, combination GS-327073 (5 × EC50) and VX-950 (5 × EC50) ([27]; Huh 9-13): clearance of Huh 9-13 cells from their replicon following one passage
- passages until clearance of replicon RNA, GS-327073 (20 × EC50) with 2′-C-MeCyt (20 × EC50) ([27]; Huh 9-13): 2 passages
- drug resistant replicon in cells surviving rebound conditions ([27]; after treatment, addition of G418, data not shown): did not contain drug resistant replicon
- clearance of Huh 9-13 cells from their replicon, drug alone ([27]; five times EC50, 3 passages): did not achieve complete clearance
- activity against sindbis virus [28]: inactive
- activity against BILN-2061 resistant replicons [29]: retained wild-type activity
- EC50 ([29]; Hepatitis C virus, read-out: EC50, BILN-2061^res): 9 ± 5 nM
- fold resistance, BILN-2061^res ([29]; versus wild-type replicon): (4.5)
- activity against vesicular stomatitis virus [30]: inactive
- CC50 [31]: ≥ 17000 nM
- activity against influenza virus A [32]: inactive
